# Experimental data taken from the supplement of paper PMC5303821, “Major sulfonate transporter Soa1 in Saccharomyces cerevisiae and considerable substrate diversity in its fungal family” (Nature Communications, 2017).
# Tests used:
# [1] = test system: Metarhizium robertsii_XP_007823832; experiment: maximal growth rate with compound as sole sulfur source (OD600 per h); higher = better growth / uptake of the sulfur source; conditions: S. cerevisiae S288C/BY sul1Δ sul2Δ soa1Δ with transporter ortholog inserted at SOA1 locus, sulfur-free B medium, 4% glucose, pH 6.5, sole sulfur source
# Experimental: (§1)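 S. cerevisiae sul1Δ sul2Δ soa1Δ strains expressing 20 fungal SOA1 orthologs (or no transporter, 'soa1 del') were grown in liquid sulfur-free B medium, 4% glucose, pH 6.5 (7 mM K2HPO4). The strains were sulfur-starved for 3 days beforehand. Each sulfur compound was the sole sulfur source at 200 µM (sulfate also at 40 mM). OD600 curves of duplicate cultures were averaged and fitted (logistic / Richards, GroFit) to give maximal growth rate, maximal density and lag phase; temperature not stated.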
# [2] = test system: Aspergillus nidulans_CBF80346; experiment: as above; conditions: S. cerevisiae S288C/BY sul1Δ sul2Δ soa1Δ with transporter ortholog inserted at SOA1 locus, sulfur-free B medium, 4% glucose, pH 6.5, sole sulfur source
# Experimental: as §1
# [3] = test system: soa1 del; experiment: as above; conditions: S. cerevisiae S288C/BY sul1Δ sul2Δ soa1Δ with transporter ortholog inserted at SOA1 locus, sulfur-free B medium, 4% glucose, pH 6.5, sole sulfur source
# Experimental: as §1
# [4] = test system: Aspergillus nidulans_XP_661733; experiment: as above; conditions: S. cerevisiae S288C/BY sul1Δ sul2Δ soa1Δ with transporter ortholog inserted at SOA1 locus, sulfur-free B medium, 4% glucose, pH 6.5, sole sulfur source
# Experimental: as §1
# [5] = test system: Aspergillus nidulans (IAM 2006)_astA; experiment: as above; conditions: S. cerevisiae S288C/BY sul1Δ sul2Δ soa1Δ with transporter ortholog inserted at SOA1 locus, sulfur-free B medium, 4% glucose, pH 6.5, sole sulfur source
# Experimental: as §1
# [6] = test system: Aspergillus nidulans_XP_681611; experiment: as above; conditions: S. cerevisiae S288C/BY sul1Δ sul2Δ soa1Δ with transporter ortholog inserted at SOA1 locus, sulfur-free B medium, 4% glucose, pH 6.5, sole sulfur source
# Experimental: as §1
# [7] = test system: Saccharomyces uvarum_SOA2; experiment: as above; conditions: S. cerevisiae S288C/BY sul1Δ sul2Δ soa1Δ with transporter ortholog inserted at SOA1 locus, sulfur-free B medium, 4% glucose, pH 6.5, sole sulfur source
# Experimental: as §1
# [8] = test system: Ogataea parapolymorpha_XP_013935289; experiment: as above; conditions: S. cerevisiae S288C/BY sul1Δ sul2Δ soa1Δ with transporter ortholog inserted at SOA1 locus, sulfur-free B medium, 4% glucose, pH 6.5, sole sulfur source
# Experimental: as §1
# [9] = test system: Ogataea parapolymorpha_XP_013932458; experiment: as above; conditions: S. cerevisiae S288C/BY sul1Δ sul2Δ soa1Δ with transporter ortholog inserted at SOA1 locus, sulfur-free B medium, 4% glucose, pH 6.5, sole sulfur source
# Experimental: as §1
# [10] = test system: Ogataea parapolymorpha_XP_013936897; experiment: as above; conditions: S. cerevisiae S288C/BY sul1Δ sul2Δ soa1Δ with transporter ortholog inserted at SOA1 locus, sulfur-free B medium, 4% glucose, pH 6.5, sole sulfur source
# Experimental: as §1
# [11] = test system: Saccharomyces eubayanus_SOA1; experiment: maximal culture density with compound as sole sulfur source (OD600); higher = better growth; conditions: S. cerevisiae S288C/BY sul1Δ sul2Δ soa1Δ with transporter ortholog inserted at SOA1 locus, sulfur-free B medium, 4% glucose, pH 6.5, sole sulfur source
# Experimental: as §1
# [12] = test system: Saccharomyces uvarum_SOA1; experiment: as above; conditions: S. cerevisiae S288C/BY sul1Δ sul2Δ soa1Δ with transporter ortholog inserted at SOA1 locus, sulfur-free B medium, 4% glucose, pH 6.5, sole sulfur source
# Experimental: as §1
# [13] = test system: Metarhizium robertsii_XP_007823832; experiment: as above; conditions: S. cerevisiae S288C/BY sul1Δ sul2Δ soa1Δ with transporter ortholog inserted at SOA1 locus, sulfur-free B medium, 4% glucose, pH 6.5, sole sulfur source
# Experimental: as §1
# [14] = test system: Aspergillus nidulans_CBF80346; experiment: as above; conditions: S. cerevisiae S288C/BY sul1Δ sul2Δ soa1Δ with transporter ortholog inserted at SOA1 locus, sulfur-free B medium, 4% glucose, pH 6.5, sole sulfur source
# Experimental: as §1
# [15] = test system: Aspergillus nidulans_CBF74694; experiment: as above; conditions: S. cerevisiae S288C/BY sul1Δ sul2Δ soa1Δ with transporter ortholog inserted at SOA1 locus, sulfur-free B medium, 4% glucose, pH 6.5, sole sulfur source
# Experimental: as §1
# [16] = test system: soa1 del; experiment: as above; conditions: S. cerevisiae S288C/BY sul1Δ sul2Δ soa1Δ with transporter ortholog inserted at SOA1 locus, sulfur-free B medium, 4% glucose, pH 6.5, sole sulfur source
# Experimental: as §1
# [17] = test system: Aspergillus nidulans_XP_661733; experiment: as above; conditions: S. cerevisiae S288C/BY sul1Δ sul2Δ soa1Δ with transporter ortholog inserted at SOA1 locus, sulfur-free B medium, 4% glucose, pH 6.5, sole sulfur source
# Experimental: as §1
# [18] = test system: Aspergillus nidulans (IAM 2006)_astA; experiment: as above; conditions: S. cerevisiae S288C/BY sul1Δ sul2Δ soa1Δ with transporter ortholog inserted at SOA1 locus, sulfur-free B medium, 4% glucose, pH 6.5, sole sulfur source
# Experimental: as §1
# [19] = test system: Aspergillus nidulans_XP_660670; experiment: as above; conditions: S. cerevisiae S288C/BY sul1Δ sul2Δ soa1Δ with transporter ortholog inserted at SOA1 locus, sulfur-free B medium, 4% glucose, pH 6.5, sole sulfur source
# Experimental: as §1
# [20] = test system: Aspergillus nidulans_XP_660563; experiment: as above; conditions: S. cerevisiae S288C/BY sul1Δ sul2Δ soa1Δ with transporter ortholog inserted at SOA1 locus, sulfur-free B medium, 4% glucose, pH 6.5, sole sulfur source
# Experimental: as §1
# [21] = test system: Fusarium oxysporum_ENH65823; experiment: as above; conditions: sulfur source concentration 200 µM; S. cerevisiae S288C/BY sul1Δ sul2Δ soa1Δ with transporter ortholog inserted at SOA1 locus; sulfur-free B medium, 4% glucose, pH 6.5, sole sulfur source
# Experimental: as §1
# [22] = test system: Aspergillus nidulans_XP_681611; experiment: as above; conditions: S. cerevisiae S288C/BY sul1Δ sul2Δ soa1Δ with transporter ortholog inserted at SOA1 locus, sulfur-free B medium, 4% glucose, pH 6.5, sole sulfur source
# Experimental: as §1
# [23] = test system: Saccharomyces uvarum_SOA2; experiment: as above; conditions: S. cerevisiae S288C/BY sul1Δ sul2Δ soa1Δ with transporter ortholog inserted at SOA1 locus, sulfur-free B medium, 4% glucose, pH 6.5, sole sulfur source
# Experimental: as §1
# [24] = test system: Saccharomyces eubayanus_SOA2; experiment: as above; conditions: S. cerevisiae S288C/BY sul1Δ sul2Δ soa1Δ with transporter ortholog inserted at SOA1 locus, sulfur-free B medium, 4% glucose, pH 6.5, sole sulfur source
# Experimental: as §1
# [25] = test system: Aspergillus nidulans_XP_661711; experiment: as above; conditions: S. cerevisiae S288C/BY sul1Δ sul2Δ soa1Δ with transporter ortholog inserted at SOA1 locus, sulfur-free B medium, 4% glucose, pH 6.5, sole sulfur source
# Experimental: as §1
# [26] = test system: Metarhizium robertsii_XP_007822519; experiment: as above; conditions: S. cerevisiae S288C/BY sul1Δ sul2Δ soa1Δ with transporter ortholog inserted at SOA1 locus, sulfur-free B medium, 4% glucose, pH 6.5, sole sulfur source
# Experimental: as §1
# [27] = test system: Ogataea parapolymorpha_XP_013935289; experiment: as above; conditions: S. cerevisiae S288C/BY sul1Δ sul2Δ soa1Δ with transporter ortholog inserted at SOA1 locus, sulfur-free B medium, 4% glucose, pH 6.5, sole sulfur source
# Experimental: as §1
# [28] = test system: Ogataea parapolymorpha_XP_013932458; experiment: as above; conditions: S. cerevisiae S288C/BY sul1Δ sul2Δ soa1Δ with transporter ortholog inserted at SOA1 locus, sulfur-free B medium, 4% glucose, pH 6.5, sole sulfur source
# Experimental: as §1
# [29] = test system: Ogataea parapolymorpha_XP_013936897; experiment: as above; conditions: S. cerevisiae S288C/BY sul1Δ sul2Δ soa1Δ with transporter ortholog inserted at SOA1 locus, sulfur-free B medium, 4% glucose, pH 6.5, sole sulfur source
# Experimental: as §1
# [30] = test system: Saccharomyces cerevisiae_SOA1; experiment: as above; conditions: S. cerevisiae S288C/BY sul1Δ sul2Δ soa1Δ with transporter ortholog inserted at SOA1 locus, sulfur-free B medium, 4% glucose, pH 6.5, sole sulfur source
# Experimental: as §1
# [31] = test system: Metarhizium robertsii_XP_007821441; experiment: as above; conditions: S. cerevisiae S288C/BY sul1Δ sul2Δ soa1Δ with transporter ortholog inserted at SOA1 locus, sulfur-free B medium, 4% glucose, pH 6.5, sole sulfur source
# Experimental: as §1
# [32] = test system: Saccharomyces eubayanus_SOA1; experiment: lag phase before growth; higher = slower start of growth; conditions: sulfur source concentration 40000 µM; S. cerevisiae S288C/BY sul1Δ sul2Δ soa1Δ with transporter ortholog inserted at SOA1 locus; sulfur-free B medium, 4% glucose, pH 6.5, sole sulfur source
# Experimental: as §1
# [33] = test system: Saccharomyces uvarum_SOA1; experiment: as above; conditions: sulfur source concentration 40000 µM; S. cerevisiae S288C/BY sul1Δ sul2Δ soa1Δ with transporter ortholog inserted at SOA1 locus; sulfur-free B medium, 4% glucose, pH 6.5, sole sulfur source
# Experimental: as §1
# [34] = test system: Ogataea parapolymorpha_XP_013935289; experiment: as above; conditions: S. cerevisiae S288C/BY sul1Δ sul2Δ soa1Δ with transporter ortholog inserted at SOA1 locus, sulfur-free B medium, 4% glucose, pH 6.5, sole sulfur source
# Experimental: as §1
# [35] = test system: Saccharomyces cerevisiae_SOA1; experiment: as above; conditions: sulfur source concentration 40000 µM; S. cerevisiae S288C/BY sul1Δ sul2Δ soa1Δ with transporter ortholog inserted at SOA1 locus; sulfur-free B medium, 4% glucose, pH 6.5, sole sulfur source
# Experimental: as §1
# [36] = sulfur source concentration 200 µM
# [37] = sulfur source concentration 40000 µM
compound,measurement,setting,value
O=S(=O)(O)O [sulfate],maximal growth rate,[1]; [36],0.0813
same,maximal growth rate,[1]; [37],0.088
same,maximal growth rate,[2]; [36],0.00472
same,maximal growth rate,[2]; [37],0.00348
same,maximal growth rate,[3]; [36],0.00368
same,maximal growth rate,[3]; [37],0.0039
same,maximal growth rate,[4]; [36],0.00457
same,maximal growth rate,[4]; [37],0.0588
same,maximal growth rate,[5]; [36],0.0953
same,maximal growth rate,[5]; [37],0.102
same,maximal growth rate,[6]; [36],0.00615
same,maximal growth rate,[6]; [37],0.0061
same,maximal growth rate,[7]; [36],0.00324
same,maximal growth rate,[7]; [37],0.00336
same,maximal growth rate,[8]; [36],0.0777
same,maximal growth rate,[8]; [37],0.124
same,maximal growth rate,[9]; [36],0.00477
same,maximal growth rate,[9]; [37],0.00353
same,maximal growth rate,[10]; [36],0.00477
same,maximal growth rate,[10]; [37],0.00462
same,maximal culture density,[11]; [36],0.251
same,maximal culture density,[11]; [37],1.62
same,maximal culture density,[12]; [36],0.265
same,maximal culture density,[12]; [37],1.65
same,maximal culture density,[13]; [36],1.57
same,maximal culture density,[13]; [37],1.63
same,maximal culture density,[14]; [36],0.243
same,maximal culture density,[14]; [37],0.216
same,maximal culture density,[15]; [36],0.184
same,maximal culture density,[15]; [37],0.208
same,maximal culture density,[16]; [36],0.212
same,maximal culture density,[16]; [37],0.222
same,maximal culture density,[17]; [36],0.264
same,maximal culture density,[17]; [37],1.57
same,maximal culture density,[18]; [36],1.6
same,maximal culture density,[18]; [37],1.68
same,maximal culture density,[19]; [36],0.223
same,maximal culture density,[19]; [37],0.277
same,maximal culture density,[20]; [36],0.31
same,maximal culture density,[20]; [37],0.315
same,maximal culture density,[21],0.233
same,maximal culture density,[22]; [36],0.294
same,maximal culture density,[22]; [37],0.301
same,maximal culture density,[23]; [36],0.199
same,maximal culture density,[23]; [37],0.212
same,maximal culture density,[24]; [36],0.201
same,maximal culture density,[24]; [37],0.21
same,maximal culture density,[25]; [36],0.224
same,maximal culture density,[25]; [37],0.382
same,maximal culture density,[26]; [36],0.186
same,maximal culture density,[26]; [37],0.213
same,maximal culture density,[27]; [36],1.58
same,maximal culture density,[27]; [37],1.65
same,maximal culture density,[28]; [36],0.281
same,maximal culture density,[28]; [37],0.343
same,maximal culture density,[29]; [36],0.294
same,maximal culture density,[29]; [37],0.301
same,maximal culture density,[30]; [36],0.274
same,maximal culture density,[30]; [37],1.71
same,maximal culture density,[31]; [36],0.215
same,maximal culture density,[31]; [37],0.225
same,lag phase before growth,[32],16.8 h
same,lag phase before growth,[33],10.7 h
same,lag phase before growth,[34]; [36],25.8 h
same,lag phase before growth,[34]; [37],7.95 h
same,lag phase before growth,[35],13.8 h
